# Measurements reported in patent US20080318931A1, “Treatment of Disorders and Diseases of the Colon” (priority 2004, published 2008).
# Entries after “also recorded” stand apart in the source; their conditions may differ.
# Assays:
# INF-γ = INF-γ secretion from Con-A activated mouse splenocytes, ELISA; type: cell-based; settings: Splenocyte; for inhibition at 10 µM: read-out: maximal inhibition of INF-γ
# Protocol: INF-γ was determined in the supernatant of the splenocyte specimens using ELISA kit and protocol (Manufactured by Cytolab).
# [1] = tested on: Human Colon carcinoma (HT29) cell-line; experiment: Viability of human colon carcinoma HT29 cells, alamar blue and neutral red; type: cell-based; settings: for cell viability / responsiveness of HT29 cells: FIG. 13; for inhibition of cell viability: 10-30 μM, FIG. 14
# Protocol: Human Colon carcinoma (HT29) cell-line (ATCC USA) was maintained in RPMI medium supplemented with 10% fetal calf serum and penicillin (100 u/ml), streptomycin (100 mcg/ml), nystatin (12.5 u/ml), L-glutamine (2 mM). Confluent cultures were washed with phosphate-buffered saline (PBS), detached with trypsine (0.25%), centrifuged, and subcultured in 96-well microtiter test plates. Cells were exposed to vehicle or to psychotropic drugs. Cell viability was measured 24 hours later using the alamar blue and neutral red methods. Results were expressed as % of controls (vehicle treated cells). Each sample is the Mean+/−[…] of 4 determinations.
# [2] = tested on: ConA-induced mouse splenocytes; experiment: Con-A-induced mouse splenocyte proliferation/viability, alamar blue; type: cell-based; settings: for ConA (mitogen)-induced splenocyte proliferation: 2.5-10 μM, alamar blue; for cytotoxicity at 20 µM: Mus musculus, Splenocyte, read-out: inhibition of cell viability
# Protocol: (§1) Mouse splenocytes were isolated from C57b1 healthy female mice. Cells (10,000/well) were tested under basal and ConA stimulation. Cells were treated with vehicle, dexamethasone or antidepressants (2.5-10 μM). Viability was assessed 48 hr later using alamar blue staining. (Reagents were manufactured by Wildflower, Santa Fe, N. Mex., USA.) Alamar blue assay was performed as in Nociari et al (1998).
# (§2) Effect of paroxetine, (SSRI) and clomipramine (TCA) as compared to dexamethasone on Con-A-induced splenocyte proliferation (alamar blue method), and splenocyte-induced secretion of TH1 cytokines TNF-α, IL2 and INFγ, 1×10^6 cells/well, was measured 48 hours after exposure to drugs (2.5-10 μM).
# In particular, mouse splenocytes were isolated from C57BL healthy female mice. Cells (10,000/well) were then exposed to Con-A (5 μM) and treated with either the vehicle, with dexamethasone or with a drug (2.5-10 μM).
# Cell viability was assessed 48 hr later using Alamar blue staining. The results are presented in FIG. 4, where each point is the graph represents the mean of 4 determinations. […]. The IC50 determined for the antidepressant drugs was in the range of 2.5-5.5 μM.
# Cells were treated with vehicle, or the antidepressants (2.5-20 μM). Viability was assessed 48 hours later using alamar blue staining. (Each point is the mean+/−SEM of 4 determinations).
# [3] = tested on: mouse splenocytes (basal); experiment: Basal mouse splenocyte viability, alamar blue; type: cell-based; settings: 2.5-10 μM, 48 hr
# Protocol: as §1
# [4] = tested on: TH1 cytokines TNF-α, IL2 and INFγ; experiment: TH1 cytokine secretion (TNF-α, IL2, INFγ) from Con-A-induced splenocytes, ELISA; type: cell-based, mouse; settings: 2.5-10 μM, 48 hours, 1×10^6 cells/well
# Protocol: as §2
# Cytokines were determined in the supernatant of the splenocyte specimens using an ELISA kit and protocol (Reagents by Cytolab). […] The pattern observed resembles that of dexamethasone.
# [5] = tested on: splenocytes derived from treated mice; experiment: ConA/basal proliferation ratio of splenocytes from mice treated in vivo for 7 days; set-up: species or system mouse; settings: paroxetine 7.5, clomipramine 15 mg/kg x3/week i.p., Con A 5 μM in vitro
# Protocol: Paroxetine or clomipramine were administered at 7.5 and 15 mg/kg x3/week i.p, respectively. Splenocytes were derived from treated animals.
# Each group represents the mean of a pool of 5 animals.
# human PBMC = experiment: Viability of LPS-exposed human PBMC, alamar blue; type: cell-based; settings: LPS 2 ug/well, 2.5-30 μM, 48 hours, both subjects
# Protocol: Human PBMC were isolated from whole blood of 2 healthy volunteers (A and B subjects). Cells (2×10^6/ml) were exposed to LPS (2 ug/well) and treated with either the vehicle, or with paroxetine, sertraline, clomipramine and trifluoperazine (2.5-30 μM).
# [6] = chitosan capsules, colon targeting technology; cited from earlier work
# [7] = tested on: Con-A activated splenocytes; experiment: cells; settings: Mus musculus, Splenocyte, read-out: inhibition of viability, splenocytes from naïve animals
# Protocol: (§4) LPS (manufactured by Sigma St. Louis Mo., USA, cat no L2880) was administered at 100 μg/mouse×2, on day 7 and day 14).
# Cyclooxygenase-2 (Cox-2) = experiment: Cox-2 expression in ConA stimulated mouse splenocytes, Western blot; type: cell-based; settings: 5 μM, normalized to actin
# Protocol: Determination was performed using Western blot analysis and quantitative dencitometry of blot.
# For each sample 2×10^7 cells were used. Cells were lysed, and equal amounts of protein was fractionated on polyacrylamide gel and then transferred to PVDF membrane. The amount of the protein was detected by immuno-blotting with […] anti-Cox-2 anti body (Murine anti COX2 Polyclonal Cat. 160126, Ann Arbor, Mich., USA. 2nd antibody conjugated to horseradish peroxidase was used and visualized with chemiluminescent Kit (Pierce, Rockford, Ill., USA) on film. Quantification of blot was performed using a densitometry apparatus (VersaDoc™ imaging system, BioRad, USA) and levels were normalized to actin.
# bcl-2 = bcl-2 expression in HT29 cells, western blot; type: cell-based, human; settings: 10 and 20 μM, 24 hr
# Protocol: (§3) The effect of paroxetine and sertraline on the expression of bcl-2 and C-jun was evaluated in human colon HT29 cell-line 24 hr after drug administration, using western blot analysis for C-jun and bcl-2 and specific antibodies.
# C-jun = C-jun expression in HT29 cells, western blot; type: cell-based, human; settings: 10 and 20 μM, 24 hr
# Protocol: as §3
# [8] = tested on: HT29 human colon cancer tumor; experiment: HT29 human colon cancer tumor growth in nude mice; type: in vivo, mouse; settings: 20 mg/kg s.c ×3/week, after 3 courses
# Protocol: The in-vivo anti tumor activity of active antidepressants was assessed in animal model of cancer. Five Nude mice (males, 6 weeks of age) were inoculated with HT29 cells (4,000,000/100 μL) by subcutaneous (s.c.) administration. […] Sertraline therapy was initiated on the 7th day after cell grafting. 3 animals were treated with sertraline (20 mg/kg s.c×3/week) near the cancerous area and 2 animals served as controls.
# [9] = tested on: Con-A activated splenocytes; settings: 5 μM
# Protocol: as §4
smiles,measurement,setting,value
COc1ccc(C(CN(C)C)C2(O)CCCCC2)cc1 (stereo not drawn) [venlafaxine],inhibition at 10 µM,INF-γ,16%
OCCN1CCN(CCCN2c3ccccc3Sc3ccc(Cl)cc32)CC1 [perphenazine],cell viability / responsiveness of HT29 cells,[1]; 24 hours,dose dependent decrease
"O=c1[nH]cc(F)c(=O)[nH]1 [5FU, 5fluoro uracil]",cell viability / responsiveness of HT29 cells,[1]; 24 hours,resistance
CN(C)CCCN1c2ccccc2CCc2ccc(Cl)cc21 [clomipramine],ConA (mitogen)-induced splenocyte proliferation,[2]; 48 hr,dose dependent decrease; also recorded: dose-dependent decrease
same,basal splenocyte proliferation,[3],dose dependent decrease
same,lymphocyte-induced pro-inflammatory cytokine secretion,[4],decrease
same,capacity to respond to Con-A (ratio ConA/basal) vs vehicle treated mice,[5],lower capacity to respond to exogenous stimulus of Con-A
same,"order of potency, decrease in cell viability",human PBMC,sertraline>paroxetine>trifluoperazine>/=clomipramine
same,inhibition of cell viability,[1],38%
Nc1ccc(O)c(C(=O)O)c1 [mesalamine],decrease in systemic exposure,[6],50%
COc1cccc2c1C(=O)c1c(O)c3c(c(O)c1C2=O)C[C@@](O)(C(=O)CO)C[C@@H]3O[C@H]1C[C@H](N)[C@H](O)[C@H](C)O1 [doxorubicin],cell viability / responsiveness of HT29 cells,[1]; 24 hours,only partial responsiveness
CSc1ccc2c(c1)N(CCC1CCCCN1C)c1ccccc1S2 (stereo not drawn) [thioridazine],cell viability / responsiveness of HT29 cells,[1]; 24 hours,dose dependent decrease
same,cytotoxicity at 20 µM,"[1]; Homo sapiens, HT-29, 20 μM, 24 hours, read-out: inhibition of cell viability",85%
C[C@@H]1C[C@H]2[C@@H]3CCC4=CC(=O)C=C[C@]4(C)[C@@]3(F)[C@@H](O)C[C@]2(C)[C@@]1(O)C(=O)CO [dexamethasone],inhibition at 2.5 µM,INF-γ; 2.5 μM,83%
same,cytotoxicity at 5 µM,[7],60%
CN[C@H]1CC[C@@H](c2ccc(Cl)c(Cl)c2)c2ccccc21 [sertraline],ConA (mitogen)-induced splenocyte proliferation,[2]; 48 hr,dose-dependent decrease
same,cell viability compared to dexamethasone,"[2]; Con-A 5 μM, drug 2.5-10 μM, 48 hr",decreased cell viability to the same extent as compared to dexamethasone
same,"order of potency, decrease in cell viability",human PBMC,sertraline>paroxetine>trifluoperazine>/=clomipramine
same,reduction of Cox-2 expression,Cyclooxygenase-2 (Cox-2),24.3%
same,inhibition of cell viability,[1],up to 75%
same,expression of bcl-2,bcl-2,inhibition
same,expression of C-jun,C-jun,stimulation
same,tumor growth vs untreated controls (1 animal),[8],prevention of tumor growth
same,tumor growth vs untreated controls (2 other animals),[8],decrease in tumor growth
same,response of splenocytes from LPS mice treated in vivo with sertraline,[9]; LPS mice + sertraline 5 mg/kg×3/week two weeks,more responsive
same,response of splenocytes from LPS mice,[9]; LPS-treated mice,in a manner similar to the naive animals
same,cytotoxicity at 5 µM,[7],40%
COCCCC/C(=N\OCCN)c1ccc(C(F)(F)F)cc1 [fluvoxamine],inhibition at 10 µM,INF-γ,51%
OCCN1CCN(CCCN2c3ccccc3Sc3ccc(C(F)(F)F)cc32)CC1 [fluphenazine],cell viability / responsiveness of HT29 cells,[1]; 24 hours,dose dependent decrease
CN(C)CCCC1(c2ccc(F)cc2)OCc2cc(C#N)ccc21 (stereo not drawn) [citalopram],cytotoxicity at 20 µM,[2]; 48 hours,49%
CN(C)CCC=C1c2ccccc2CCc2ccccc21 [amitriptyline],maximal inhibition of cell viability,"[2]; 2.5-20 μM, 48 hours",80.7%
CN(C)CCC=C1c2ccccc2COc2ccccc21 [doxepine],cytotoxicity at 20 µM,[2]; 48 hours,38%
CN1CCN(CCCN2c3ccccc3Sc3ccc(C(F)(F)F)cc32)CC1 [trifluoperazine],"order of potency, decrease in cell viability",human PBMC,sertraline>paroxetine>trifluoperazine>/=clomipramine
